Assays:
[1] = test system: SARS-CoV-2; test: (§1) Antiviral activity against SARS-CoV-2 infected in human Calu-3 cells assessed as reduction in progeny virus yeild preincubated with cell culture for 1 hr and further infected with virus for 1 hr followed by replacement of medium containing compound measured after 2 days by qRT-PCR analysis; assay type: functional, organism-based; settings: Severe acute respiratory syndrome coronavirus 2, Calu-3
[2] = test system: SARS-CoV-2; test: as §1, with “African green monkey Vero” for “human Calu-3”; assay type: functional, organism-based; settings: Severe acute respiratory syndrome coronavirus 2, Vero

Question: For `O=c1cc(-c2ccccc2)oc2cc(O)c(O)c(O)c12` [BAICALEIN], which EC50 [1] is on record?
Answer: Its EC50 is 1.2 µM.

Question: For `O=C(O)[C@H]1O[C@@H](Oc2cc3oc(-c4ccccc4)cc(=O)c3c(O)c2O)[C@H](O)[C@@H](O)[C@@H]1O` [BAICALIN], which EC50 [2] is on record?
Answer: The EC50 was 9 µM.

— ChEMBL document CHEMBL5532636 (Eur J Med Chem, 2023)
